By IC50 is commonly meant the midpoint of a concentration-inhibition curve. A higher IC50 goes with weaker potency in that assay.

From ChEMBL document CHEMBL3352641, “Discovery of pyrrolo[1,2-b]pyridazine-3-carboxamides as Janus kinase (JAK) inhibitors” (Bioorg Med Chem Lett, 2014) come the findings set out here.

Molecules are shown by their SMILES.

Data set [1] is described as follows: Permeability by PAMPA method. The format is ADME. The note with it: read-out: permeability. On the technique in general: PAMPA measures passive passage across an artificial lipid membrane.
The test system of a further data set is Blood. Kind of data set: Inhibition of IL2-induced IFN-gamma production in human whole blood incubated for 18 hrs by ELISA method. The format is functional, tissue-based. A general note: In an ELISA, binding on a coated surface is turned into a signal by an enzyme label.
Data set [2] addresses T1, Tyrosine-protein kinase JAK3 (Homo sapiens, UniProt P52333).
T1 sequence (P52333 whole entry): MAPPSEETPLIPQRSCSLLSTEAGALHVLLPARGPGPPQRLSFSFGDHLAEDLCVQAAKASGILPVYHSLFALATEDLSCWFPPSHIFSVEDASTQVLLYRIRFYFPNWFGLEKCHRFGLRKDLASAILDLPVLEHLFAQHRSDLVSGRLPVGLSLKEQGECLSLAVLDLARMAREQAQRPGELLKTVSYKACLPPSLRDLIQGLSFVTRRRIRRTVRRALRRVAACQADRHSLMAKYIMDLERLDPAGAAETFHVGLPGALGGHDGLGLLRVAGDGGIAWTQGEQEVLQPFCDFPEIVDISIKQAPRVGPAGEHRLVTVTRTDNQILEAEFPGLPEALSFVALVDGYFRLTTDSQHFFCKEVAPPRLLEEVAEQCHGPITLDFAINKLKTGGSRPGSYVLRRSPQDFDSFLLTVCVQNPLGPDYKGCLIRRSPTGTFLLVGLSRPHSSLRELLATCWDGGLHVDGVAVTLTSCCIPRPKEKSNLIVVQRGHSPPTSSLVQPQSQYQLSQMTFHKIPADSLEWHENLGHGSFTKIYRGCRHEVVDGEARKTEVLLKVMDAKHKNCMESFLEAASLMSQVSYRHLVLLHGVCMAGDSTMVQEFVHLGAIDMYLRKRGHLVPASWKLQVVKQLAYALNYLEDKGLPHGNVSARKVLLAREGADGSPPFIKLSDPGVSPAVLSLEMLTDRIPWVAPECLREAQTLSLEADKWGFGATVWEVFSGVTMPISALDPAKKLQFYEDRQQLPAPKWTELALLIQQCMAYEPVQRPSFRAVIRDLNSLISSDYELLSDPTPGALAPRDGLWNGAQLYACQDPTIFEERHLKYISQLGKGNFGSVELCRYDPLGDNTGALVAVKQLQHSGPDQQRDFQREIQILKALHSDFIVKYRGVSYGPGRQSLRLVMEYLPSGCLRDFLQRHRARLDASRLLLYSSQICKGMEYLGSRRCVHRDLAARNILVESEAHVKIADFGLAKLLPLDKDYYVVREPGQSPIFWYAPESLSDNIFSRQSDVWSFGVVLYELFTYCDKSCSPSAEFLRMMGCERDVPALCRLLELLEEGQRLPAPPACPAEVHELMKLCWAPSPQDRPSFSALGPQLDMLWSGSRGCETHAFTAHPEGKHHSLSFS
Kind of data set: Inhibition of JAK3 (unknown origin) by filter assay.

A short description of data set [3]: Permeability in human Caco2 cells. The format is ADME, cell-based. The note with it: Caco-2, read-out: permeability. (In general: Caco-2 cells form a polarised layer with tight junctions and transporters.)
The target in data set [4] is Tyrosine-protein kinase JAK1 (Homo sapiens, UniProt P23458). The data set is described as follows: Inhibition of JAK1 (unknown origin) bycaliper assay.
Data set [5] is described as follows: Protein binding in human serum. The format is ADME, cell-free. The note with it: read-out: PB (converted).
Data set [6] addresses Tyrosine-protein kinase JAK2 (Homo sapiens, UniProt O60674). The data set is described as follows: Inhibition of JAK2 (unknown origin) by caliper assay.
For data set [7], the target named is Non-receptor tyrosine-protein kinase TYK2 (Homo sapiens, UniProt P29597). The data set is described as follows: Inhibition of TYK2 (unknown origin) by caliper assay.
Data set [8] in a line: (§1) Fraction unbound in human serum. The format is ADME, cell-free.
The subject of a further data set is Serum. The data set is described as §1. The format is ADME, cell-free.

Chain of Tyrosine-protein kinase JAK2 (O60674 whole entry): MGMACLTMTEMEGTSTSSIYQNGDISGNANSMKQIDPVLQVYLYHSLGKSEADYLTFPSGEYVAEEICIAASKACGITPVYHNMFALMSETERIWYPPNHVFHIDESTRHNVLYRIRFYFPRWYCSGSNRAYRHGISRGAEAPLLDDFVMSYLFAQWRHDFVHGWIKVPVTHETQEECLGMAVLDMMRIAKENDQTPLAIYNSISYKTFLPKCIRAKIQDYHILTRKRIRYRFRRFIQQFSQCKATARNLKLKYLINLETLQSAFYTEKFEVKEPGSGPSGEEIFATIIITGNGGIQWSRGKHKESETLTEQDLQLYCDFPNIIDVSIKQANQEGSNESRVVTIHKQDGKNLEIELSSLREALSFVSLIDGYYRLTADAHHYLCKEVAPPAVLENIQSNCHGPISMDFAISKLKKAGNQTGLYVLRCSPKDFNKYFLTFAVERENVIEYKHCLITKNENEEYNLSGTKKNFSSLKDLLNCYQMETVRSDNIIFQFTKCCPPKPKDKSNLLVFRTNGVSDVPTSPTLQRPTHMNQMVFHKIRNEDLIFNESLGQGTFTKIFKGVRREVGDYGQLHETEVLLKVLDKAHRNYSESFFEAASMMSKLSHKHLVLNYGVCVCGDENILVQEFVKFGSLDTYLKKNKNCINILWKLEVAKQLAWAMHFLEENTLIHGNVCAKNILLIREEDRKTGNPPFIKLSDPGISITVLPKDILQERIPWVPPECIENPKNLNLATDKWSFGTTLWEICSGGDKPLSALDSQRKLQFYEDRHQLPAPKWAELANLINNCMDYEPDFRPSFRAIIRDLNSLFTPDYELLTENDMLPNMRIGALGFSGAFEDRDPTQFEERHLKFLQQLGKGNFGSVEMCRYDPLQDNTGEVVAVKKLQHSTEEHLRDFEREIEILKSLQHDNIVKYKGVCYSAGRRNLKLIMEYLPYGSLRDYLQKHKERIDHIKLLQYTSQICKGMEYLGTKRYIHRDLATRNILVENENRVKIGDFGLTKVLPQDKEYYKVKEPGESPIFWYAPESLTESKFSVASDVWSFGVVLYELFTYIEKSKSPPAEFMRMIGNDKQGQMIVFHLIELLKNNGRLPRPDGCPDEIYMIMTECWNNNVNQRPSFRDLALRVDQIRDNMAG
Chain of Tyrosine-protein kinase JAK1 (P23458 whole entry): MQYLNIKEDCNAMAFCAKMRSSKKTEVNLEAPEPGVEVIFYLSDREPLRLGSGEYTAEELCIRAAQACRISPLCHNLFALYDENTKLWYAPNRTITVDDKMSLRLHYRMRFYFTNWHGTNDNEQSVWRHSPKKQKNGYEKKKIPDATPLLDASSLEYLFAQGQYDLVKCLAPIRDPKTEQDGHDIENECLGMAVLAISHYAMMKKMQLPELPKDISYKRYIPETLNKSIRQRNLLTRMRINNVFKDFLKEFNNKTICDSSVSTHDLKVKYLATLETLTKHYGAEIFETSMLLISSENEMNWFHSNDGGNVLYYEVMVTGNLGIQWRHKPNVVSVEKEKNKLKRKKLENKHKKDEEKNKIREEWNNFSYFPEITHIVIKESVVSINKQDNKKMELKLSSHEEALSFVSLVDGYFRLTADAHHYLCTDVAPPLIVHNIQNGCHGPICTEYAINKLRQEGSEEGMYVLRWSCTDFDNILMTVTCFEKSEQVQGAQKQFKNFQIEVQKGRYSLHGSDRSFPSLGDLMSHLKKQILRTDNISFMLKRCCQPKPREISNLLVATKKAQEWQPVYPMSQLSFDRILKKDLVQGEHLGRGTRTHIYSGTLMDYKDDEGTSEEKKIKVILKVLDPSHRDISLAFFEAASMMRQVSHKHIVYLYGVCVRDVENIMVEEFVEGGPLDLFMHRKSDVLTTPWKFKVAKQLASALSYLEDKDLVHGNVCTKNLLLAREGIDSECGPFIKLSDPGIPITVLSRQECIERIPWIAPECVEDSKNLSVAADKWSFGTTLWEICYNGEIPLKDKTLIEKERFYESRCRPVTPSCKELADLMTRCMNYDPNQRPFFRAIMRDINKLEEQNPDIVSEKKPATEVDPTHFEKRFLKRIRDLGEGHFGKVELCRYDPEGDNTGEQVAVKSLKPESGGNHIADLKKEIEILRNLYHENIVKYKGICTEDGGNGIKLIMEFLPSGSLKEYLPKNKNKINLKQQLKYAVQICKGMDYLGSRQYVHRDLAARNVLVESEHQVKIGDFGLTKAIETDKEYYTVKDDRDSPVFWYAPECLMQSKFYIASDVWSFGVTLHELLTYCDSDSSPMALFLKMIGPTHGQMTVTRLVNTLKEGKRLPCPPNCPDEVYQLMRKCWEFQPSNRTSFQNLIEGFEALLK
Chain of Non-receptor tyrosine-protein kinase TYK2 (P29597 whole entry): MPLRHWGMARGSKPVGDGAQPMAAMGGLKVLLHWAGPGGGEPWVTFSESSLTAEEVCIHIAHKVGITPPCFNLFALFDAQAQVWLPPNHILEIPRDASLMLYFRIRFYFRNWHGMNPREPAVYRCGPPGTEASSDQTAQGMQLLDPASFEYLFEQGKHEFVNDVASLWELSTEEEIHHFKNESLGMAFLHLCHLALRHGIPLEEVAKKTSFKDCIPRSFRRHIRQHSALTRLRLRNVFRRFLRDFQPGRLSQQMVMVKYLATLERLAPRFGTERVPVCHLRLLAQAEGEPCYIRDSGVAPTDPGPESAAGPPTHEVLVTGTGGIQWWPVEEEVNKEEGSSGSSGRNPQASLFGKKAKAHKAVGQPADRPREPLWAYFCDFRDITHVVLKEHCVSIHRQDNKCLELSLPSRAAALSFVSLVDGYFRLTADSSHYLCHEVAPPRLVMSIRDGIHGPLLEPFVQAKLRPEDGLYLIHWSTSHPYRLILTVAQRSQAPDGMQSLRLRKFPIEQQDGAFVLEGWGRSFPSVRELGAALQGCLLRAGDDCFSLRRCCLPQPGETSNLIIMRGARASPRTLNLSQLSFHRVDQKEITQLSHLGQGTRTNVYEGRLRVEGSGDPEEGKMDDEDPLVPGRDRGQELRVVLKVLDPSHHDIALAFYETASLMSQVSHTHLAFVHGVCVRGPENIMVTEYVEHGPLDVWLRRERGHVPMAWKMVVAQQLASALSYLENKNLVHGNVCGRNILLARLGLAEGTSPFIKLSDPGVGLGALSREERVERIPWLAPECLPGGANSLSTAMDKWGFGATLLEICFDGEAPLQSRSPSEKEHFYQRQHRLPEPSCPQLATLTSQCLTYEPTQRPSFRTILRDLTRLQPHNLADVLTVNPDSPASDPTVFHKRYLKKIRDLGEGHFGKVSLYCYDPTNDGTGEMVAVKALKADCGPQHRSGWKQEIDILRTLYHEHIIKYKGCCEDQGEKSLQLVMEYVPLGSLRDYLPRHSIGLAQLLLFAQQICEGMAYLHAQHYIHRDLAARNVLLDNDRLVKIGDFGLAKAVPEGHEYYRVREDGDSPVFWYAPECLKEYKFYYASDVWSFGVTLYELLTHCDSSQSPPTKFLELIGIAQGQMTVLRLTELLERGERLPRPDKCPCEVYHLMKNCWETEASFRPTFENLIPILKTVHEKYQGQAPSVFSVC

`C[C@@H](Nc1c(C(N)=O)cnn2cccc12)C(C)(C)C`: the Papp came to 86.2 ×10⁻⁶ cm/s in data set [1] and 19.2 ×10⁻⁶ cm/s in [3]. For the same molecule, the IC50 in the data set on Blood is 0.93 µM; in data set [2] it was 0.008 µM; in data set [4] it was 0.048 µM; in data set [6], 0.03 µM; in data set [7] it was 0.016 µM. The fraction unbound in data set [5] was 0.027.
Turning to `CC1(C)CCC[C@H]1Nc1c(C(N)=O)cnn2cccc12`, the IC50 was found to be 1.2 µM with Blood; 0.005 µM in [2]; 0.024 µM in data set [4]; 0.016 µM in [6]; 0.008 µM in data set [7]. For the same molecule, the fraction unbound in [8] and in [5] was 0.019 each time.
Regarding `C[C@H](Nc1c(C(N)=O)cnn2cccc12)C(C)(C)C`, the IC50 in data set [2] amounted to 0.11 µM; in data set [4], 0.27 µM; in data set [6], 0.57 µM; in [7], 0.68 µM.
Take `CC1(C)CCC[C@@H]1Nc1c(C(N)=O)cnn2cccc12`: the IC50 is 0.066 µM in data set [2], 0.056 µM in data set [4], 0.13 µM in [6] and 0.13 µM in [7].
With `NC(=O)c1cnn2cccc2c1NC1CCCC1`, the IC50 was 0.17 µM in data set [4], 0.25 µM in data set [6] and 0.15 µM in data set [7].
`CC1(C)[C@H](Nc2c(C(N)=O)cnn3cccc23)CC[C@@]1(C)N`: the IC50 was determined as 0.18 µM in the data set on Blood; 0.032 µM in data set [2]; 0.071 µM in [4]; 0.28 µM in [6]; 0.052 µM in data set [7]. Also, in [8], the fraction unbound amounted to 0.52.
As to `CC1(C)[C@H](Nc2c(C(N)=O)cnn3cccc23)CC[C@]1(C)N`, the IC50 with Blood worked out at 0.21 µM; in [2], 0.005 µM; in data set [4], 0.019 µM; in data set [6], 0.062 µM; in data set [7] it was 0.097 µM. In the data set on Serum, this molecule gave a Fu of 52%.
For `C[C@@]1(F)CCC[C@@H]1Nc1c(C(N)=O)cnn2cccc12`, the IC50 in [2] worked out at 0.047 µM; in data set [4], 0.19 µM; in data set [6] it was 0.13 µM; in [7] it was 0.4 µM.
Regarding `C[C@@]1(C#N)CCC[C@H]1Nc1c(C(N)=O)cnn2cccc12` (racemic), the IC50 in data set [2] was determined as 0.067 µM; in [4] it was 0.061 µM; in [7], 0.03 µM.
As for `CC1(C)[C@@H](O)CC[C@H]1Nc1c(C(N)=O)cnn2cccc12` (racemic), the IC50 in the data set with Blood stood at 1.2 µM; in data set [2], 0.016 µM; in [4], 0.062 µM; in data set [6], 0.13 µM; in [7], 0.079 µM.
Regarding `CC1(C)[C@H](O)CC[C@H]1Nc1c(C(N)=O)cnn2cccc12` (racemic), the 50% inhibitory concentration (IC50) was 0.38 µM with Blood; 0.006 µM in [2]; 0.021 µM in [4]; 0.042 µM in data set [6]; 0.022 µM in data set [7]. This molecule came in with a fraction unbound in data set [8] of 0.17.
On to `CC1(C)[C@H](Nc2c(C(N)=O)cnn3cccc23)CC[C@]1(C)O` (racemic), for which the IC50 with Blood worked out at 5 µM; in data set [2], 0.028 µM; in data set [4], 0.067 µM; in data set [6], 0.1 µM; in data set [7] it was 0.21 µM.
As to `CC1(C)[C@H](Nc2c(C(N)=O)cnn3cccc23)CC[C@@]1(C)O` (racemic), the IC50 stood at 0.36 µM with Blood; 0.003 µM in data set [2]; 0.026 µM in [4]; 0.031 µM in data set [6]; 0.007 µM in data set [7]. Further, the fraction unbound in [8] amounted to 0.16.
Take `CC1(C)C[C@@](C)(O)C[C@H]1Nc1c(C(N)=O)cnn2cccc12` (racemic): the IC50 was 3.2 µM in the data set with Blood; 0.03 µM in [2]; 0.15 µM in [4]; 0.35 µM in data set [6]; 0.28 µM in data set [7].
For `CC1(C)C[C@](C)(O)C[C@H]1Nc1c(C(N)=O)cnn2cccc12` (racemic), the IC50 was determined as 1.7 µM in the data set with Blood; 0.015 µM in [2]; 0.05 µM in data set [4]; 0.061 µM in data set [6]; 0.09 µM in data set [7].
On to `CC1(C)[C@H](N)CC[C@H]1Nc1c(C(N)=O)cnn2cccc12` (racemic), for which the IC50 is 0.25 µM in the data set on Blood; 0.024 µM in data set [2]; 0.041 µM in data set [4]; 0.17 µM in data set [6]; 0.11 µM in [7].
For `CC1(C)[C@@H](N)CC[C@H]1Nc1c(C(N)=O)cnn2cccc12` (racemic), the half-maximal inhibitory concentration (IC50) came to 0.26 µM with Blood; 0.012 µM in [2]; 0.034 µM in [4]; 0.13 µM in [6]; 0.11 µM in data set [7]. The molecule further registered a fraction unbound in data set [8] of 0.44.
As for `C[C@]1(O)CCC[C@H]1Nc1c(C(N)=O)cnn2cccc12` (racemic), the IC50 in data set [2] stood at 0.069 µM; in [4], 0.11 µM.
For `C[C@@]1(O)CCC[C@H]1Nc1c(C(N)=O)cnn2cccc12` (racemic), the IC50 was found to be 5.3 µM in the data set with Blood, 0.042 µM in data set [2] and 0.27 µM in [4].
For `C[C@]1(CO)CCC[C@H]1Nc1c(C(N)=O)cnn2cccc12` (racemic), the IC50 with Blood is 1.5 µM; in data set [2] it was 0.024 µM; in [4] it was 0.084 µM; in data set [6], 0.11 µM; in data set [7], 0.034 µM.
For `C[C@@]1(CO)CCC[C@H]1Nc1c(C(N)=O)cnn2cccc12` (racemic), the 50% inhibitory concentration (IC50) in data set [2] stood at 0.14 µM; in data set [4], 0.25 µM; in [6] it was 0.38 µM; in [7], 0.39 µM.
For `C[C@]1(C#N)CCC[C@H]1Nc1c(C(N)=O)cnn2cccc12` (racemic), the IC50 stood at 0.25 µM in the data set with Blood, 0.01 µM in [2], 0.015 µM in data set [4] and 0.006 µM in [7]. For the same molecule, the fraction unbound in [8] turned out to be 0.27.
Turning to `C[C@@]1(F)CCC[C@H]1Nc1c(C(N)=O)cnn2cccc12` (racemic), the half-maximal inhibitory concentration (IC50) came to 0.043 µM in data set [2], 0.1 µM in data set [4], 0.21 µM in [6] and 0.11 µM in [7].
